The values that follow are results of earlier work, collected in PMC9627400 (ACS applied materials & interfaces, 2022).

This data set has as its target IL-6. The settings on record: read-out: affinity; anti-IL-6 monoclonal antibody; cited from earlier work.

“siltuximab: an FDA-approved anti-IL-6 monoclonal antibody”: the Kd is 11.7 nM.
